Test results reported in patent US9499502B2, “5-substituted iminothiazines and their mono- and dioxides as BACE inhibitors, compositions, and their use” (Merck Sharp & Dohme Corp., priority 2011, dated 2016).

Experiments:
[1] = target: purified human autoBACE-2 (Homo sapiens (Human), UniProt Q9Y5Z0); assay: BACE-2 Assay (BACE-HTRF assay); type: biochemical; settings: for Ki: Ki calculated from IC50 using the Cheng-Prusoff equation, read-out: BACE2 Ki
Procedure: Inhibitor IC50s at purified human autoBACE-2 are determined in a time-resolved endpoint proteolysis assay that measures hydrolysis of the QSY7-[…]-Eu-amide FRET peptide substrate (BACE-HTRF assay). […] DMSO is present at 5% final concentration in the assay. Following laser excitation of sample wells at 320 nm, the fluorescence signal at 620 nm is collected for 400 ms following a 50 μs delay on a RUBYstar HTRF plate reader (BMG Labtechnologies). Raw RFU data is normalized to maximum (1.0 nM BACE/DMSO) and minimum (no enzyme/DMSO) RFU values. […] The Ki values are calculated from the IC50 using the Cheng-Prusoff equation.

[2] = target: soluble human BACE1 catalytic domain (Homo sapiens (Human), UniProt P56817); assay: BACE1 HTRF FRET Assay; settings: for Ki: read-out: BACE1 Ki
Sequence of soluble human BACE1 catalytic domain (P56817 75-416): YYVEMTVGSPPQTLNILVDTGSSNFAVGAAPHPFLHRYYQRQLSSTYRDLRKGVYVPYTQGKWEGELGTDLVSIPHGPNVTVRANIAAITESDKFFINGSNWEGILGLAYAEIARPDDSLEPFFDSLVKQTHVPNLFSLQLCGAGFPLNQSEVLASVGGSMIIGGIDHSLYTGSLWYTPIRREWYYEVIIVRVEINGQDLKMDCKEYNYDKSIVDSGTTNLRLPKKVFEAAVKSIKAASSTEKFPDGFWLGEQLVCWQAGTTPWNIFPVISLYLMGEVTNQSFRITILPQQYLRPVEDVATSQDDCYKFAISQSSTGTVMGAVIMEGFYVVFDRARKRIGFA

Sequence of purified human autoBACE-2 (Q9Y5Z0 63-473): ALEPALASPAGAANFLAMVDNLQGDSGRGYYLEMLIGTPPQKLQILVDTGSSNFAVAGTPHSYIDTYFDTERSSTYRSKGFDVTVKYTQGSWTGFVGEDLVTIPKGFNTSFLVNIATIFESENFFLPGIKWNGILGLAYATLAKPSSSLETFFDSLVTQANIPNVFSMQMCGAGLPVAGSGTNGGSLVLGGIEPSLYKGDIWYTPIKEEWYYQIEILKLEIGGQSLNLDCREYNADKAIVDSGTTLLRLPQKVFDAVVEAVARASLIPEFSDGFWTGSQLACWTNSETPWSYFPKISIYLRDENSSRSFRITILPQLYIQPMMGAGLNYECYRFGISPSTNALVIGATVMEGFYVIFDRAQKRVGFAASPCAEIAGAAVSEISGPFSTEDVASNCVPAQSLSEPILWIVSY

Row | SMILES | Ki [1] [nM] | Ki [2] [nM] | inhibition at 10 µM ([1]; read-out: inhibition of BACE2 at 10 μM) [%] | inhibition at 10 µM ([2]; read-out: BACE1 inhibition, % Inh. at 10 μM, at 10 μM) [%] | inhibition at 1 µM ([2]; read-out: BACE1 % Inh. at 1 μM, at 1 μM) [%]
1 | C[C@@]1(c2ccc(F)cc2F)CS(=O)(=O)[C@@](C)(c2cccc(Br)c2)C(=N)N1 [Example 32g-a] | 145 | 381 | – | – | –
2 | C[C@@]1(c2ccc(F)cc2F)CS(=O)(=O)[C@@](C)(c2cccc(C(F)(F)F)c2)C(=N)N1 [Example 32h-a] | 126 | 362 | – | – | –
3 | C[C@@]1(c2cccc(OCc3ccccc3)c2)C(=N)N[C@](C)(c2cc(F)ccc2F)CS1(=O)=O [Example 34d-b] | – | – | 10 | 16 | –
4 | CC1(C)C(=N)N[C@](C)(c2sc(N3Cc4cc(F)ccc4C3=O)cc2Cl)CS1(=O)=O [Example 35a] | 1400 | 6080 | – | – | –
5 | CC1(C)C(=N)N[C@](C)(c2cc(-c3cccc(C#N)c3)ccc2F)CS1(=O)=O [compound 10] | < 200 | – | – | – | 36
